Experimental findings from article PMC3409115, “Diverse Inhibitor Chemotypes Targeting Trypanosoma cruzi CYP51” (PLoS Neglected Tropical Diseases, 2012) are described below.

The target in one assay is T1, T. cruzi CYP51 (Trypanosoma cruzi, UniProt Q7Z1V1).
T1 construct: had the first 21 residues upstream of K22 replaced with the fragment MAKKKKK; His6 (C); made in house
As to the kind of experiment: Primary HTS in two-wavelength mode. The format is binding. The following applies: 2 µM CYP51, 528 measurements.

The test system of assay [1] is T. cruzi trypomastigote strain CAI/72 in C2C12 myoblasts. Put plainly: Trypanocidal assay. The format is cell-based, Trypanosoma cruzi. The following applies: 14 days treatment, then one week compound-free. As to the method:
Compounds cross-validated with low EC50 against T. cruzi infected cells were further evaluated to determine the “cidal” concentration at which host cells are effectively cured, using the protocol adapted from Engel et al 1998 [30]. To allow long term treatment and avoid culture overgrowth, C2C12 myoblasts were seeded at low density in 96 well plates (10^3 cells/well) and cultured with DMEM H-21 medium supplemented with low FBS concentration (1%), 25 mM HEPES, 2 mM L-glutamine, 100 U/ml penicillin and 100 µg/ml streptomycin. The cells were infected with T. cruzi trypomastigote strain CAI/72 (5 parasites/cell) for 24 h and treated with 0, 0.04, 0.12, 0.37, 1.10, 3.30 or 10 µM test compounds in 100 µl of medium for 14 days. During the course of treatment, medium supplemented with test compounds was replaced every 72 h. After 14 days, drug pressure was withdrawn and incubation continued in the compound-free medium for another week, during which cultures were monitored for reappearance of T. cruzi trypomastigotes in the supernatant.

Assay [2] relates to sterol biosynthesis in T. cruzi amastigotes. Put plainly: Lipid analysis of T. cruzi amastigotes (GC-MS of membrane sterols). The format is cell-based, Trypanosoma cruzi. The conditions noted are these: amastigotes in C2C12 myoblasts, 24 h drug treatment, concentrations 5x below cidal; posaconazole 100 nM. How it is done:
To grow intracellular amastigotes for lipid analysis, C2C12 mouse skeletal myoblasts (4×10^6 cells) cultured in 150 cm^2 flasks as described above were infected with 80×10^6 trypomastigotes for 24 h. The cultures were treated with test compounds 72 h post-infection at concentrations 5× below cidal to avoid completely killing the parasites. Posaconazole at 100 nM was used as a positive control. […] Cells were harvested 96 h post-infection and after 24 h of drug treatment. Cell detachment was initiated by brief treatment with 10 ml of 0.25% trypsin in PBS, followed promptly by replacement with 10 ml of fresh media containing FBS. Harvested cells were washed 3× with 25 ml of PBS to remove FBS and released trypomastigotes. The suspension of infected cells was then transferred to a glass tube and centrifuged at 2000 rpm for 5 min. After washing with PBS, 2 ml of chloroform-methanol solution (2∶1 ratio) was added to re-suspend the cell pellet. Organic solvents were then evaporated under N2 flow, allowing the pellet to dry.
For total lipid extraction, the dry cell pellet was treated with 2 ml chloroform for 24 h. Polar molecules were removed by washing the organic phase 3× with 3 ml water. The organic phase containing the sterols was subsequently dried on an evaporator under N2 flow. The lipids were re-suspended in 2 ml of chloroform-methanol (9∶1 ratio), washed again 3× with 3 ml water, dried under N2 flow and re-suspended in acetonitrile. After an additional wash 3× with 3 ml water, the acetonitrile was dried under an N2 stream. Extracted dry sterols were re-dissolved in hexane and derivatized with N,N-bis(trimethylsilyl)-2,2,2-trifluoroacetamide (BSTFA) (Pierce) by incubating at 37°C for at least 2 hours. Sterols as their trimethylsilyl (TMS) derivatives were analyzed by gas chromatography and mass spectrometry (GC-MS). GC-MS analysis and lipid identification were performed as described previously.

Assay [3] has as its system T. cruzi-infected skeletal myoblasts (intracellular amastigotes). Put plainly: Hit cross-validation in T. cruzi-infected mammalian cells (image-based assay). The format is cell-based, Trypanosoma cruzi. The conditions noted are these: Trypanosoma cruzi, Myoblast, 72 h, T. cruzi-infected myoblasts, 72 h treatment; read-out: EC50 in image-based HTS cross-validation assay.

Entries after “also recorded” stand apart in the source; their conditions may differ.

T1 sequence (Q7Z1V1 15-481, looked up, natural form): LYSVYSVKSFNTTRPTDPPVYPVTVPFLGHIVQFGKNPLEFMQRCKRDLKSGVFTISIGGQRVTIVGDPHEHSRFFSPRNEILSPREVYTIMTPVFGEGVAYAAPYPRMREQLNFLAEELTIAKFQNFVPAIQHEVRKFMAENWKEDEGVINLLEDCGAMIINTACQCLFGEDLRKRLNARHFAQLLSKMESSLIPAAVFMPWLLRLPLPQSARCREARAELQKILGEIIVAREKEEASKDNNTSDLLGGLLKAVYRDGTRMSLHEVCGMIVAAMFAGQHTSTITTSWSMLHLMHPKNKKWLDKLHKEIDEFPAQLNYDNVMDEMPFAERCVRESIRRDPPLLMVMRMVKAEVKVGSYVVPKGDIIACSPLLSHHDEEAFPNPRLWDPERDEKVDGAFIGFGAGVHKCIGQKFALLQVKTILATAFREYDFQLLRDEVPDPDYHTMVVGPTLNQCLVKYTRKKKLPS

For `CC1CCC(C(=O)NC(Cc2c[nH]c3ccccc23)C(=O)Nc2ccncc2)CC1` (stereo not drawn) [reference, α-[(4-methylcyclohexyl)carbonylamino]-N-4-pyridinyl-1H-indole-3-propanamide], the “ΔA = A425−A390” value on T. cruzi CYP51 was found to be 0.043±0.004.

In turn, `CC[C@@H]([C@H](C)O)n1ncn(-c2ccc(N3CCN(c4ccc(OC[C@@H]5CO[C@@](Cn6cncn6)(c6ccc(F)cc6F)C5)cc4)CC3)cc2)c1=O` [posaconazole, reference compound] showed a Trypanocidal concentration in assay [1] of 0.6 nM. Moreover, in assay [2], the “Effect on membrane sterol composition by GC-MS” value was “lanosterol (f) and eburicol (h) dominated the GC-MS traces; also recorded: fecosterol (e) was completely inhibited”. Also, the EC50 (usually the concentration that produces a half-maximal response) in assay [3] was determined as 1 nM.
